These results are taken from ChEMBL document CHEMBL1149166, “Antimycobacterial agents. 1. Thio analogues of purine” (J Med Chem, 2004).

For orientation: MIC means the lowest concentration found to suppress growth. What is called MIC90 is an inhibitory concentration at the 90% level, which refers to growth in some studies and to a panel of isolates in others. Higher therefore signals weaker potency. As a reminder, the inhibition is the relative decrease from the control value, in per cent. Lower therefore signals a response near the control. By EC50 is commonly meant the concentration at which the effect is half-maximal. Read a low EC50 as an effect from little substance.

In brackets after ≈: the same amount, converted by molar mass. Some results are limits rather than exact numbers.

The test system of assay [1] is Mycobacterium tuberculosis. Briefly: Inhibitory activity against growth of Mycobacterium tuberculosis (Mtb) H37Ra Strain. The format is functional.
Assay [2] deals with Mycobacterium tuberculosis. Briefly: Inhibitory activity against growth of Mycobacterium tuberculosis H37Rv Strain. The assay is classed as functional.
Assay [3] has as its system Mycobacterium tuberculosis. Kind of assay: Percent inhibitory activity against Mycobacterium tuberculosis H37Rv Strain at 6.25 ug/mL. The assay is classed as functional.
The test system of assay [4] is Mycobacterium tuberculosis. Briefly: Inhibitory activity against growth of Mycobacterium tuberculosis (Mtb) H37Ra Strain; Activity showed partial growth inhibition representing an estimated 50% or more. The format is functional.
The test system of assay [5] is Mycobacterium tuberculosis. Kind of assay: Percent inhibitory activity against Mycobacterium tuberculosis (Mtb) H37Rv Strain at 12.25 ug/mL. The assay is classed as functional.
The test system of assay [6] is Mycobacterium tuberculosis. Briefly: Lowest concentration of compound against Mtb H37Ra strain required to inhibit the growth completely. The format is functional.
Assay [7] is described as follows: Selective index is […]. The format is functional.
In assay [8] the test system is Mycobacterium tuberculosis. Kind of assay: Lowest concentration of compound against Mtb H37Ra strain required to inhibit the growth completely; activity range is 2-4. The assay is classed as functional.
Assay [9] deals with Mycobacterium tuberculosis. Briefly: Concentration effecting […] reduction in the viable cell counts of mouse bone marrow macrophage monolayers containing Mtb Erdman after 7 days compared to controls. The format is functional, organism-based. As to conditions: 168 h.

In [1], `Oc1nc(SCc2ccccc2Cl)c2[nH]cnc2n1` had an MIC of over 16 µg/mL. Further, the MIC90 in assay [2] is over 6.25 µg/mL. Moreover, the inhibition at 6.25 µg/mL in assay [3] was 62%.
Taken in the same sequence, the figures for `Clc1nc(Sc2cccc3ccccc23)c2[nH]cnc2n1` were over 12.8 µg/mL, over 6.25 µg/mL and 56%.
In the same order, the values of `Oc1nc(SCc2ccccc2)c2[nH]cnc2n1` are over 12.8 µg/mL, over 6.25 µg/mL and 94%.
The molecule `CCOC(=O)Cn1cnc2c(Sc3cccc(C)c3)ncnc21` gave an MIC90 in assay [2] of over 6.25 µg/mL. In addition, 6.25 µg/mL produced 0% inhibition in [3]. The minimum inhibitory concentration (MIC) in [4] is over 12.8 µg/mL.
`c1ccc(CSc2ncnc3[nH]cnc23)cc1`: the MIC in assay [1] is over 12.8 µg/mL. Also, in assay [2], the MIC90 was over 12.5 µg/mL. For the same molecule, the inhibition at 12.25 µg/mL in assay [5] stood at 52%.
In assay [1], `Oc1nc(SCc2ccc(F)cc2C(F)(F)F)c2[nH]cnc2n1` yielded an MIC of over 16 µg/mL. Also, the inhibition at 6.25 µg/mL in assay [3] was 50%.
On to `CCOC(=O)Cn1cnc2c(SCc3cc(Cl)ccc3F)nc(O)nc21`, for which, in assay [6], the minimum inhibitory concentration (MIC) was found to be 4 µg/mL (≈ 10.1 µM). In addition, the MIC90 in [2] was over 6.25 µg/mL. Moreover, in assay [3], at 6.25 µg/mL the inhibition was 17%.
On to `CCOC(=O)Cn1cnc2c(SCc3ccccc3F)nc(O)nc21`, for which, in assay [6], the MIC came out at 4 µg/mL (≈ 11 µM). For the same molecule, the MIC90 in assay [2] is over 6.25 µg/mL. Testing at 6.25 µg/mL in assay [3] gave an inhibition of 22%.
Regarding `CCCCCCCCCCCCSc1ncnc2c1ncn2CC(=O)OCC`, in assay [6], 8 µg/mL (≈ 19.7 µM) was the least that counted as inhibitory (MIC). Further, the SI in assay [7] was over 12.8. In addition, the MIC90 in [2] was 0.78 µg/mL (≈ 1.92 µM). The same molecule displayed an inhibition at 6.25 µg/mL in assay [3] of 98%.
Consider `CCCCCCCCCCSc1ncnc2c1ncn2CC(=O)OCC`, for which the SI in assay [7] was over 40. In assay [2], this molecule returned an MIC90 of 1.56 µg/mL (≈ 4.12 µM). In assay [3], the inhibition at 6.25 µg/mL was determined as 100%. The MIC in assay [4] was over 12.8 µg/mL.
For the molecule `COc1cccc(CSc2[nH]c(O)nc3ncnc2-3)c1`, in assay [1], the minimal inhibitory concentration (MIC) is over 16 µg/mL. Besides, the MIC90 in assay [2] was over 6.25 µg/mL. The same molecule came in with an inhibition at 6.25 µg/mL in assay [3] of 59%.
As for `Oc1nc(SCc2ccccc2F)c2[nH]cnc2n1`, the minimum inhibitory concentration (MIC) in [6] is over 8 µg/mL. Further, the MIC90 in assay [2] was over 6.25 µg/mL. The inhibition at 6.25 µg/mL in [3] was 50%.
Consider `Clc1nc(Sc2ncccn2)c2[nH]cnc2n1`, for which the MIC in [1] is over 12.8 µg/mL. The same molecule returned an MIC90 in assay [2] of over 6.25 µg/mL. The same molecule came in with an inhibition at 6.25 µg/mL in [3] of 53%.
In the same order, the values of `CCOC(=O)Cn1cnc2c(Sc3ccc(Cl)cc3)ncnc21` are 32 µg/mL (≈ 91.7 µM), over 6.25 µg/mL and 99%.
`Cc1ccccc1Sc1[nH]c(Cl)nc2ncnc1-2`: the MIC in assay [1] was over 12.8 µg/mL. Also, the MIC90 in assay [2] is over 6.25 µg/mL. The molecule also registered an inhibition at 6.25 µg/mL in assay [3] of 72%.
The molecule `Oc1nc(SCc2ccc(Cl)cc2)c2[nH]cnc2n1` showed an MIC90 in [2] of over 6.25 µg/mL. Moreover, the inhibition at 6.25 µg/mL in [3] is 55%. Moreover, the MIC in [4] is over 12.8 µg/mL.
In turn, `CCOC(=O)Cn1cnc2c(SCc3cccc([N+](=O)[O-])c3C)nc(O)nc21` yielded an MIC in assay [1] of 16 µg/mL (≈ 39.7 µM). Also, the MIC90 in assay [2] was over 6.25 µg/mL. Moreover, the inhibition at 6.25 µg/mL in assay [3] worked out at 0%.
Molecule `Oc1nc(SCc2ccc(F)cc2)c2[nH]cnc2n1` gave an MIC90 in assay [2] of over 6.25 µg/mL. This molecule also showed an inhibition at 6.25 µg/mL in [3] of 52%. In assay [4], the minimum inhibitory concentration (MIC) is over 12.8 µg/mL.
With `c1ccc2nc(Sc3[nH]cnc4ncnc3-4)ccc2c1`, in assay [1], the minimal inhibitory concentration (MIC) was over 12.8 µg/mL. The molecule also displayed an MIC90 in assay [2] of over 12.5 µg/mL. Further, the inhibition at 12.25 µg/mL in assay [5] stood at 69%.
The molecule `CCOC(=O)Cn1cnc2c(SCc3ccccc3)nc(O)nc21` yielded an MIC in [6] of 4 µg/mL (≈ 11.6 µM). Moreover, the MIC90 in assay [2] was over 6.25 µg/mL. For the same molecule, 6.25 µg/mL produced 25% inhibition in assay [3].
With `CCCCCCCCCCSc1ncnc2c1ncn2CC(=O)OC(C)(C)C`, the MIC in assay [1] came to 16 µg/mL (≈ 39.4 µM). Further, the SI in assay [7] is over 3.19. Also, in assay [2], the MIC90 is 3.13 µg/mL (≈ 7.7 µM). This molecule also displayed an inhibition at 6.25 µg/mL in assay [3] of 99%.
Consider `CC[C@@H](CO)NCCN[C@@H](CC)CO` [ETHAMBUTOL], for which, in assay [8], it took 4 µg/mL (≈ 19.6 µM) to inhibit growth (MIC).
`CCCCCCCCCCCSc1[nH]cnc2ncnc1-2` gave an MIC in assay [1] of over 12.8 µg/mL. The MIC90 in [2] came out at 3.13 µg/mL (≈ 10.2 µM). Also, the inhibition at 6.25 µg/mL in assay [3] was determined as 98%. Besides, a half-maximal response in assay [9] (EC50) required 2.54 µg/mL (≈ 8.29 µM).
In [1], `Cc1ccc(Sc2[nH]cnc3ncnc2-3)cc1` registered an MIC of over 12.8 µg/mL. For the same molecule, in [2], the MIC90 is over 12.5 µg/mL. The inhibition at 12.25 µg/mL in assay [5] worked out at 65%.
`CCCCCCCCCCSc1ncnc2c1ncn2CC(N)=O` came in with an MIC in assay [1] of 32 µg/mL (≈ 91.6 µM). In assay [2], this molecule showed an MIC90 of over 6.25 µg/mL. In addition, in assay [3], the inhibition at 6.25 µg/mL was 0%.
Taken in the same sequence, the figures for `CCCCCCCCCCSc1ncnc2c1ncn2CC(=O)OCc1ccccc1` were over 12.8 µg/mL, over 6.25 µg/mL and 0%.
As to `CCCCCCCCCCSc1ncnc2c1ncn2CC(=O)Oc1ccccc1`, the MIC in assay [1] is over 12.8 µg/mL. The molecule also displayed an MIC90 in assay [2] of over 6.25 µg/mL. Moreover, in assay [3], 6.25 µg/mL produced 0% inhibition.
In the same order, the values of `CCOC(=O)Cn1cnc2c(Sc3ccc(C)cc3)ncnc21` are over 12.8 µg/mL, over 6.25 µg/mL and 99%.
In turn, `Cc1cccc(Sc2[nH]cnc3ncnc2-3)c1` returned an MIC in assay [1] of over 12.8 µg/mL. This molecule had an MIC90 in assay [2] of over 12.5 µg/mL. Besides, in assay [5], the inhibition at 12.25 µg/mL is 99%.
For the molecule `O=[N+]([O-])c1ccccc1CSc1nc(O)nc2nc[nH]c12`, the MIC in assay [1] was over 16 µg/mL. For the same molecule, in assay [2], the MIC90 was over 6.25 µg/mL. For the same molecule, the inhibition at 6.25 µg/mL in assay [3] is 61%.
In assay [1], `Clc1ccc(Sc2[nH]cnc3ncnc2-3)cc1` gave an MIC of over 12.8 µg/mL. This molecule returned an MIC90 in assay [2] of over 12.5 µg/mL. Further, the inhibition at 12.25 µg/mL in assay [5] worked out at 78%.
For the molecule `CCOC(=O)Cn1cnc2c(Sc3ccc4ccccc4c3)ncnc21`, the MIC90 in [2] is over 6.25 µg/mL. In assay [3], this molecule showed an inhibition at 6.25 µg/mL of 100%. The minimum inhibitory concentration (MIC) in assay [4] was over 12.8 µg/mL.
As for `c1ccc2cc(Sc3[nH]cnc4ncnc3-4)ccc2c1`, the MIC90 in assay [2] was over 12.5 µg/mL. This molecule also registered an inhibition at 12.25 µg/mL in assay [5] of 69%. In assay [4], the MIC is over 12.8 µg/mL.
`CCCCCCCCCCSc1[nH]c(Cl)nc2ncnc1-2`: the MIC in assay [1] was over 12.8 µg/mL. In addition, in [2], the MIC90 was over 6.25 µg/mL. The inhibition at 6.25 µg/mL in assay [3] is 86%.
